# Measured values from patent US8536202B2, “Triazole-substituted anthranilamides as pesticides” (Bayer Cropscience AG, priority 2010, dated 2013).
# Where two headings read alike, the source gives them in different places.
# Experiments:
# [1] = test system: caterpillars of the armyworm (Spodoptera frugiperda); assay: Spodoptera frugiperda test (SPODFR spray treatment); type: in vivo; settings: 168 h, after 7 days; for pest or weed control at 100 g/ha: read-out: activity in %
# How it was run: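 Percent caterpillar mortality read 7 days after infestation (0% none killed, 100% all killed). Treatment was a spray of the acetone/DMF/emulsifier formulation, water-diluted to test concentration, onto Zea mays leaf discs, allowed to dry before larvae were added.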
# [2] = log P determination by HPLC on reversed-phase columns (EEC Directive 79/831 Annex V.A8); type: physicochemical; settings: pH 2.7
# How it was run: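 Calibration used unbranched alkan-2-ones of 3 to 16 carbons with known log P, values interpolated linearly from retention times between neighbouring standards. Acidic-range LC-MS run at pH 2.7, eluents aqueous and acetonitrile formic acid 0.1%, linear gradient 10% to 95% acetonitrile.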
# [3] = test system: larvae of the mustard beetle (Phaedon cochleariae); assay: Phaedon test (PHAECO spray treatment); type: in vivo; settings: 168 h, 100 g/ha, after 7 days, read-out: activity in %
# How it was run: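 Mortality of mustard beetle larvae, expressed as percent killed (100% all, 0% none), assessed 7 days after spraying. Spray liquor made from compound in acetone plus dimethylformamide with alkylaryl polyglycol ether, diluted in emulsifier-containing water to the desired concentration.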
# [4] = reversed-phase C18 HPLC column, HPLC on reversed-phase columns (C 18), EEC Directive 79/831 Annex V.A8, read-out: logP
"chromatographic logP [2, 4]",SMILES,pest or weed control at 100 g/ha [1] [%],chromatographic logP [2],pest or weed control at 100 g/ha [3] [%],pest or weed control at 20 g/ha ([1]; 20 g/ha) [%]
,Cc1cc(Cl)cc(C(=O)NCC2CC2)c1NC(=O)c1cc(Cn2ncc(C(F)(F)F)n2)nn1-c1ncccc1Cl [Example 141],100,3.55,100,
,Cc1cc(Cl)cc(C(=O)NC2CCC2)c1NC(=O)c1cc(Cn2ncc(C(F)(F)F)n2)nn1-c1ncccc1Cl [Example 142],100,3.64,100,
,NC(=O)c1cc(Cl)cc(Cl)c1NC(=O)c1cc(Cn2ncc(C(F)(F)F)n2)nn1-c1ncccc1Cl [Example 145],100,2.69,100,
,O=C(NC1CC1)c1cc(Cl)cc(Cl)c1NC(=O)c1cc(Cn2ncc(C(F)(F)F)n2)nn1-c1ncccc1Cl [Example 148],100,3.18,100,
,CCNC(=O)c1cc(Cl)cc(Cl)c1NC(=O)c1cc(Cn2ncc(C(F)(F)F)n2)nn1-c1ncccc1Cl [Example 149],100,3.2,100,
,O=C(NCC1CC1)c1cc(Cl)cc(Cl)c1NC(=O)c1cc(Cn2ncc(C(F)(F)F)n2)nn1-c1ncccc1Cl [Example 152],100,3.48,100,
,O=C(NC1CCC1)c1cc(Cl)cc(Cl)c1NC(=O)c1cc(Cn2ncc(C(F)(F)F)n2)nn1-c1ncccc1Cl [Example 153],100,3.56,100,
,N#CCNC(=O)c1cc(Cl)cc(Cl)c1NC(=O)c1cc(Cn2ncc(C(F)(F)F)n2)nn1-c1ncccc1Cl [Example 154],100,2.9,100,
,Cc1cc(I)cc(C(=O)NC(C)C2CC2)c1NC(=O)c1cc(Cn2ncc(C(F)(F)F)n2)nn1-c1ncccc1Cl (stereo not drawn) [Example 158],100,4.05,100,
,Cc1cc(I)cc(C(=O)NC2CC2)c1NC(=O)c1cc(Cn2ncc(C(F)(F)F)n2)nn1-c1ncccc1Cl [Example 159],100,3.45,100,
,CCNC(=O)c1cc(I)cc(C)c1NC(=O)c1cc(Cn2ncc(C(F)(F)F)n2)nn1-c1ncccc1Cl [Example 160],100,3.5,100,
,Cc1cc(I)cc(C(=O)NC(C)C)c1NC(=O)c1cc(Cn2ncc(C(F)(F)F)n2)nn1-c1ncccc1Cl [Example 161],100,3.73,100,
,Cc1cc(I)cc(C(=O)NCC2CC2)c1NC(=O)c1cc(Cn2ncc(C(F)(F)F)n2)nn1-c1ncccc1Cl [Example 163],100,3.8,100,
,CNC(=O)c1cc(F)cc(C)c1NC(=O)c1cc(Cn2ncc(C(F)(F)F)n2)nn1-c1ncccc1Cl [Example 167],100,2.63,100,
,Cc1cc(F)cc(C(=O)NC(C)C2CC2)c1NC(=O)c1cc(Cn2ncc(C(F)(F)F)n2)nn1-c1ncccc1Cl (stereo not drawn) [Example 168],100,3.36,100,
,Cc1cc(F)cc(C(=O)NC2CC2)c1NC(=O)c1cc(Cn2ncc(C(F)(F)F)n2)nn1-c1ncccc1Cl [Example 169],100,2.86,100,
,Cc1cc(Br)cc(C(=O)NC(C)(C)C)c1NC(=O)c1cc(Cn2ncc(C(F)(F)F)n2)nn1-c1ncccc1Cl [Example 176],100,4.65,100,
,CSC[C@H](C)NC(=O)c1cc(C#N)cc(C)c1NC(=O)c1cc(Cn2cc(C(F)(F)F)nn2)nn1-c1ncccc1Cl [Example 183],100,2.95,100,
,Cc1cc(Cl)cc(C(=O)NC(C)C)c1NC(=O)c1cc(Cn2cc(C(F)(F)F)nn2)nn1-c1ncccc1Cl [Example 190],100,3.06,100,
,Cc1cc(Cl)cc(C(=O)NCC2CC2)c1NC(=O)c1cc(Cn2cc(C(F)(F)F)nn2)nn1-c1ncccc1Cl [Example 195],100,3.22,100,

"chromatographic logP [2, 4]",SMILES,pest or weed control at 100 g/ha [1] [%],chromatographic logP [2],pest or weed control at 100 g/ha [3] [%],pest or weed control at 20 g/ha ([1]; 20 g/ha) [%]
,CC(NC(=O)c1cc(Cl)cc(Cl)c1NC(=O)c1cc(Cn2cc(C(F)(F)F)nn2)nn1-c1ncccc1Cl)C1CC1 (stereo not drawn) [Example 198],100,3.38,100,
,CSC[C@H](C)NC(=O)c1cc(Cl)cc(Cl)c1NC(=O)c1cc(Cn2cc(C(F)(F)F)nn2)nn1-c1ncccc1Cl [Example 202],100,3.28,100,
,O=C(NCC1CC1)c1cc(Cl)cc(Cl)c1NC(=O)c1cc(Cn2cc(C(F)(F)F)nn2)nn1-c1ncccc1Cl [Example 204],100,3.14,100,
,N#CCNC(=O)c1cc(Cl)cc(Cl)c1NC(=O)c1cc(Cn2cc(C(F)(F)F)nn2)nn1-c1ncccc1Cl [Example 205],100,2.63,100,
,CNC(=O)c1cc(I)cc(C)c1NC(=O)c1cc(Cn2cc(C(F)(F)F)nn2)nn1-c1ncccc1Cl [Example 206],100,2.86,100,
,Cc1cc(I)cc(C(=O)NC(C)C2CC2)c1NC(=O)c1cc(Cn2cc(C(F)(F)F)nn2)nn1-c1ncccc1Cl (stereo not drawn) [Example 207],100,3.69,100,
,Cc1cc(I)cc(C(=O)NC2CC2)c1NC(=O)c1cc(Cn2cc(C(F)(F)F)nn2)nn1-c1ncccc1Cl [Example 208],100,3.15,100,
,CCNC(=O)c1cc(I)cc(C)c1NC(=O)c1cc(Cn2cc(C(F)(F)F)nn2)nn1-c1ncccc1Cl [Example 209],100,3.04,100,
,Cc1cc(I)cc(C(=O)NC(C)C)c1NC(=O)c1cc(Cn2cc(C(F)(F)F)nn2)nn1-c1ncccc1Cl [Example 210],100,3.38,100,
,Cc1cc(I)cc(C(=O)NC(C)(C)C)c1NC(=O)c1cc(Cn2cc(C(F)(F)F)nn2)nn1-c1ncccc1Cl [Example 211],100,3.72,100,
,Cc1cc(I)cc(C(=O)NCC2CC2)c1NC(=O)c1cc(Cn2cc(C(F)(F)F)nn2)nn1-c1ncccc1Cl [Example 214],100,3.45,100,
,Cc1cc(C#N)cc(C(=O)NC(C)C)c1NC(=O)c1cc(Cn2nncc2C(F)(F)F)nn1-c1ncccc1Cl [Example 216],100,2.63,100,
4.15,Cc1cc(Cl)cc(C(=O)NC(C)C2CC2)c1NC(=O)c1cc(Cn2cc(C(F)(C(F)(F)F)C(F)(F)F)nn2)nn1-c1ncccc1Cl (stereo not drawn) [Example 226],,,100,100
,Cc1cc(Cl)cc(C(=O)NC(C)C)c1NC(=O)c1cc(Cn2cc(C(F)(C(F)(F)F)C(F)(F)F)nn2)nn1-c1ncccc1Cl [Example 227],100,3.85,100,
3.91,Cc1cc(Cl)cc(C(=O)NCC2CC2)c1NC(=O)c1cc(Cn2cc(C(F)(C(F)(F)F)C(F)(F)F)nn2)nn1-c1ncccc1Cl [Example 229],100,,100,
,CNC(=O)c1cc(I)cc(C)c1NC(=O)c1cc(Cn2cc(C(F)(C(F)(F)F)C(F)(F)F)nn2)nn1-c1ncccc1Cl [Example 233],100,3.59,100,
4.38,Cc1cc(I)cc(C(=O)NC(C)C2CC2)c1NC(=O)c1cc(Cn2cc(C(F)(C(F)(F)F)C(F)(F)F)nn2)nn1-c1ncccc1Cl (stereo not drawn) [Example 234],100,,100,
,Cc1cc(I)cc(C(=O)NC(C)C)c1NC(=O)c1cc(Cn2cc(C(F)(C(F)(F)F)C(F)(F)F)nn2)nn1-c1ncccc1Cl [Example 235],100,4.09,100,
4.43,Cc1cc(I)cc(C(=O)NC(C)(C)C)c1NC(=O)c1cc(Cn2cc(C(F)(C(F)(F)F)C(F)(F)F)nn2)nn1-c1ncccc1Cl [Example 236],100,,100,
4.14,Cc1cc(I)cc(C(=O)NCC2CC2)c1NC(=O)c1cc(Cn2cc(C(F)(C(F)(F)F)C(F)(F)F)nn2)nn1-c1ncccc1Cl [Example 237],100,,100,
